Results: paper PMC6399351, “Cationic Intrinsically Disordered Antimicrobial Peptides (CIDAMPs) Represent a New Paradigm of Innate Defense with a Potential for Novel Anti-Infectives” (Scientific Reports, 2019)
Read-outs that look alike come from different tables or passages of the source. Ends that are not written are not given here.

Tests used:
P. aeruginosa ATCC 10145 = conditions: CFU assay, 10 mM NaP
[1] = test system: Corynebacterium simulans DSM 44415; test: CFU assay of antimicrobial activity; type: cell-based; conditions: 10 mM NaP, pH 6.0, 0.25% glucose
Protocol: All purified peptides and recombinant proteins were applied using a colony forming unit (CFU) assay in different media. Bacteria were grown to early log-phase in BHI, washed either with 10 mM Na-P, pH 7.4/1% TSB or pH 5.5/1% TSB, or pH 5.5 without TSB or BHI, and adjusted to a concentration of 10^4–10^5 colony forming units (CFU)/ml. For cell number control, 100 µl aliquots were diluted 1:10, 1:100 and 1:1000 and plated in duplicates on BHI agar plates. […]
(§1) Then bacteria were incubated for 2 h at ambient temperature, if not otherwise stated. 10 µl of 0.01% (v/v) acetic acid, added to 100 µl aliquots of the bacteria in the respective medium, served as negative control. From each test, 1:10 and 1:100 dilutions were generated and plated as duplicates of 100 µl aliquots on BHI agar plates. After 16 h incubation at 37 °C, CFU were counted using a colony counter (Bio Kobe, Japan) and expressed as mean of the duplicate estimation to achieve a complete dose-response curve. All experiments were performed at serial dilutions in a concentration range of 100 µg/mL −25 ng/mL for recombinant HRNR fragments and 300 or 150 µg/mL–19 ng/mL for synthetic peptides.

[2] = test system: Acinetobacter baumannii ATCC 19606; test: CO-ADD MIC, broth microdilution (CLSI); type: cell-based; conditions: Mueller–Hinton broth, 5 × 10^5 CFU/mL, 18 h 37 °C, by CO-ADD
Text: (§2) They were defined as the lowest peptide
(§3) Further details of the screening

[3] = test system: Pseudomonas aeruginosa ATCC 27853; test: CO-ADD MIC, broth microdilution (CLSI); type: cell-based; conditions: Mueller–Hinton broth, 5 × 10^5 CFU/mL, 18 h 37 °C, by CO-ADD
Text: as §2, §3

[4] = test system: Cryptococcus neoformans ATCC 208821; test: CO-ADD MIC, antifungal assay (CLSI); type: cell-based; conditions: Yeast Nitrogen Base broth, 24 h 35 °C, by CO-ADD
Protocol: (§4) Fungi strains were cultured for 3 days on Yeast Extract-Peptone Dextrose (YPD) agar at 30 °C. A yeast suspension of 1 × 10^6 to 5 × 10^6 cells/mL (as determined by OD530) was prepared from five colonies. These stock suspensions were diluted with Yeast Nitrogen Base (YNB) broth to a final concentration of 2.5 × 10^3 CFU/mL. […] Plates were covered and incubated at 35 °C for 24 h without shaking.

[5] = test system: Candida albicans ATCC 90028; test: CO-ADD MIC, antifungal assay (CLSI); type: cell-based; conditions: Yeast Nitrogen Base broth, 24 h 35 °C, by CO-ADD
Protocol: as §4

S. aureus ATCC 6538 = conditions: CFU assay, 10 mM NaP, pH 5.5, 0.25% glucose
[6] = test system: Staphylococcus aureus ATCC 43300; conditions: MRSA; CLSI, Mueller–Hinton broth, 5 × 10^5 CFU/mL, 18 h 37 °C, by CO-ADD
E. coli ATCC 25922 = test: CO-ADD MIC, broth microdilution (CLSI); type: cell-based, Escherichia coli; conditions: Mueller–Hinton broth, 5 × 10^5 CFU/mL, 18 h 37 °C, by CO-ADD
Text: as §2, §3

[7] = test system: Klebsiella pneumonia ATCC 700603; conditions: MDR strain; CLSI, Mueller–Hinton broth, 5 × 10^5 CFU/mL, 18 h 37 °C, by CO-ADD
C. albicans ATCC 24433 = test: CFU assay of antimicrobial activity; type: cell-based, Candida albicans; conditions: 10 mM NaP, pH 5.5, 1% TSB
Protocol: Bacteria were cultivated in either brain heart infusion medium (BHI), lysogeny broth (LB) or tryptic soy broth (TSB)[88]. If not otherwise stated, bacteria were incubated under shaking conditions (37 °C at 170 rpm) or as indicated on the ATCC- or DSM-data sheets. Candida albicans was cultured for 3 days on Yeast Extract-Peptone Dextrose (YPD) agar at 30 °C and yeast suspensions at appropriate density were treated with CIDAMPs as indicated.
(§5) All purified peptides and recombinant proteins were applied using a colony forming unit (CFU) assay in different media. Bacteria were grown to early log-phase in BHI, washed either with 10 mM Na-P, pH 7.4/1% TSB or pH 5.5/1% TSB, or pH 5.5 without TSB or BHI, and adjusted to a concentration of 10^4–10^5 colony forming units (CFU)/ml. For cell number control, 100 µl aliquots were diluted 1:10, 1:100 and 1:1000 and plated in duplicates on BHI agar plates. To 100 µl aliquots of the bacteria, suspended in the respective medium (10 mM Na-P buffer pH 7,0–7,4/ 1% (w/v) TSB; 10 mM Na-P buffer pH 5,5/ 1% (w/v) TSB; 10 mM Na-P buffer pH 7,0–7,4/ 1% (w/v) TSB pH 7,0–7,4/ 0,25% (w/v) glucose; 10 mM Na-P buffer pH 5,5/ 0,25% (w/v) glucose, respectively), 10 µl of a solution of the peptide or protein (two-fold dilutions, from 300 µg/ml or 150 µg/ml down to 19 ng/ml), dissolved in 0.01% (v/v) acetic acid, were added.
as §1

E. coli ATCC 11775 = test: CFU assay of antimicrobial activity; type: cell-based, Escherichia coli; conditions: 10 mM NaP, pH 5.5, 1% TSB
Protocol: as §5, §1

Molecule: QSGTRHAETSSGGQAASSHEQAR [FLG3273-3295]
- LD90 (P. aeruginosa ATCC 10145; pH 5.5, 0.25% glucose): > 300 µg/mL
- LD100 (P. aeruginosa ATCC 10145; pH 5.5, 0.25% glucose): 300 µg/mL
- LD90 [1]: > 150 µg/mL
- LD100 [1]: > 150 µg/mL

Molecule: QSGTRHETSSGGQAASSQEQAR [FLG1652-1674]
- LD90 (P. aeruginosa ATCC 10145; pH 5.5, 0.25% glucose): > 300 µg/mL
- LD100 (P. aeruginosa ATCC 10145; pH 5.5, 0.25% glucose): > 300 µg/mL
- LD90 [1]: > 150 µg/mL
- LD100 [1]: > 150 µg/mL

Molecule: QSGTRHTQTSSGGQAASSHEQAR [FLG2625-2647]
- LD90 (P. aeruginosa ATCC 10145; pH 5.5, 0.25% glucose): > 300 µg/mL
- LD100 (P. aeruginosa ATCC 10145; pH 5.5, 0.25% glucose): > 300 µg/mL
- LD90 [1]: > 150 µg/mL
- LD100 [1]: > 150 µg/mL

Molecule: SHHRHFRSHQCRR [LCE-3C55-67]
- Minimal inhibitory concentration (MIC) [2]: >32 µg/mL
- Minimal inhibitory concentration (MIC) [3]: >32 µg/mL
- Minimal inhibitory concentration (MIC) [4]: 8 µg/mL
- Minimal inhibitory concentration (MIC) [5]: >32 µg/mL
- LD90 (S. aureus ATCC 6538): 2.35 µg/mL
- Minimal inhibitory concentration (MIC) [6]: 32 µg/mL
- Minimal inhibitory concentration (MIC) (E. coli ATCC 25922): >32 µg/mL
- Minimal inhibitory concentration (MIC) [7]: >32 µg/mL

Molecule: rHRNR2638–2684: recombinant HRNR fragment (QSSGHGRQGSGSGQSPSRGRHGSGLGHSSSHGQHGSGSGRSSSRGPY; UniProt Q86YZ3 2638-2684, looked up, fragment)
- LD90 (P. aeruginosa ATCC 10145; pH 5.5, 1% TSB): 0.39 µg/mL
- LD100 (P. aeruginosa ATCC 10145; pH 5.5, 1% TSB): 12.5 µg/mL
- LD90 (C. albicans ATCC 24433): 6.3 µg/mL
- LD100 (C. albicans ATCC 24433): >100 µg/mL
- LD90 (E. coli ATCC 11775): 3.1 µg/mL
- LD100 (E. coli ATCC 11775): >100 µg/mL

Molecule: rHRNR2656–2684: recombinant HRNR fragment (GRHGSGLGHSSSHGQHGSGSGRSSSRGPY; UniProt Q86YZ3 2656-2684, looked up, fragment)
- LD90 (P. aeruginosa ATCC 10145; pH 5.5, 1% TSB): 0.78 µg/mL
- LD100 (P. aeruginosa ATCC 10145; pH 5.5, 1% TSB): 12.5 µg/mL
- LD90 (C. albicans ATCC 24433): 6.3 µg/mL
- LD100 (C. albicans ATCC 24433): >100 µg/mL
- LD90 (E. coli ATCC 11775): 3.1 µg/mL
- LD100 (E. coli ATCC 11775): >100 µg/mL

B1: rHRNR2727–2850: recombinant HRNR fragment (protein, UniProt Q86YZ3 2727-2850, looked up, fragment)
chain: SGQSSTFDQEGSSTGQSSSYGHRGSGSSQSSGYGRHGAGSGQSLSHGRHGSGSGQSSSYGQHGSGSGQSSGYSQHGSGSGQDGYSYCKGGSNHDGGSSGSYFLSFPSSTSPYEYVQEQRCYFYQ
- LD90 (P. aeruginosa ATCC 10145; pH 5.5, 1% TSB): 2.1 µg/mL
- LD100 (P. aeruginosa ATCC 10145; pH 5.5, 1% TSB): 17.1 µg/mL
- LD90 (C. albicans ATCC 24433): 8.6 µg/mL
- LD100 (C. albicans ATCC 24433): 137 µg/mL
- LD90 (E. coli ATCC 11775): 0.28 µg/mL
- LD100 (E. coli ATCC 11775): >100 µg/mL

B2: rHRNR1075–1172: recombinant HRNR fragment (protein, UniProt Q86YZ3 1075-1172, looked up, fragment)
chain: THGQHGSTSGQSSSCGQHGASSGQSSSHGQHGSGSSQSSGYGRQGSGSGQSPGHGQRGSGSRQSPSYGRHGSGSGRSSSSGQHGSGLGESSGFGHHES
- LD90 (P. aeruginosa ATCC 10145; pH 5.5, 1% TSB): 6.25 µg/mL
- LD100 (P. aeruginosa ATCC 10145; pH 5.5, 1% TSB): >100 µg/mL
- LD90 (C. albicans ATCC 24433): 1.6 µg/mL
- LD100 (C. albicans ATCC 24433): 12.5 µg/mL
- LD90 (E. coli ATCC 11775): 6.25 µg/mL
- LD100 (E. coli ATCC 11775): >100 µg/mL
